According to PubChem BioAssay (NCI):
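All cell lines were grown in 96-well plates and treated with compound for 48 hours. The concentration for 50% growth inhibition is given as GI50. Definition used: TGI = concentration required for complete inhibition of growth.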

Legend:
Experiment in all cases: DTP human tumour cell line panel, 48 h
[1] = test system: CCRF-CEM leukemia
[2] = test system: COLO 205 colon
[3] = test system: HL-60(TB) leukemia
[4] = test system: KM12 colon
[5] = test system: OVCAR-3 ovarian
[6] = test system: OVCAR-4 ovarian
[7] = test system: SF-268 CNS
[8] = test system: SK-MEL-5 melanoma
[9] = test system: SR leukemia
[10] = test system: UO-31 renal

Structure (SMILES)	GI50 [1] [µM]	TGI [1] [µM]	GI50 [2] [µM]	TGI [2] [µM]	GI50 [3] [µM]	TGI [3] [µM]	GI50 [4] [µM]	TGI [4] [µM]	GI50 [5] [µM]	TGI [5] [µM]	GI50 [6] [µM]	TGI [6] [µM]	GI50 [7] [µM]	TGI [7] [µM]	GI50 [8] [µM]	TGI [8] [µM]	GI50 [9] [µM]	TGI [9] [µM]	GI50 [10] [µM]	TGI [10] [µM]
CC(C)(C)N1CC(OC(N)=O)C1	> 100	> 100	> 100	> 100	> 100	> 100	> 100	> 100	> 100	> 100	> 100	> 100	> 100	> 100	> 100	> 100	> 100	> 100	> 100	> 100
NC1=NC(c2ccccc2)CC(c2cc(Cl)cc(Br)c2O)=N1 (stereo not drawn)		35.6		25.6		13.2		26.1		30.2		41.9		26.9		25		> 100		32.3
C[C@@H](Oc1cc(NS(=O)(=O)N2CCC2)nc(SCc2cccc(F)c2F)n1)[C@@H](O)CO	> 100	> 100	> 100	> 100	> 100	> 100	> 100	> 100	> 100	> 100	> 100	> 100	> 100	> 100	> 100	> 100	> 100	> 100	> 100	> 100
COc1ccccc1N1CCN(C(=O)c2ccc(NS(=O)(=O)c3cccc4cccnc34)cc2)CC1	> 100	> 100	> 100	> 100	> 100	> 100	> 100	> 100	> 100	> 100	> 100	> 100	> 48.3	> 100	> 100	> 100	> 100	> 100	> 100	> 100
CNC(=O)c1cncc(/C=C/c2c(C)cccc2C)c1	> 25	> 25	> 22.6	> 25	> 25	> 25	> 25	> 25	> 25	> 25	> 25	> 25	> 25	> 25	> 25	> 25	> 25	> 25	9.29	> 25
COc1cc([C@@H]2c3cc4c(cc3[C@H](OC(C)=O)[C@H]3COC(=O)[C@H]23)OCO4)cc(OC)c1OC	0.0337	> 100	0.0288	0.0785	0.0223	0.0602	0.0306	> 100	0.034	> 100	0.0826	> 100	0.0484	> 100	0.0229	0.0658	0.0225	> 100	0.0808	> 100
O=C1c2cccc3cc([N+](=O)[O-])cc(c23)C(=O)N1CCN1CCCC1	0.343	7.02	0.648	2.92	0.404	> 100	0.551	9.02	1.74	5.71	1.48	11.7	0.601	4.27	0.293	0.943	0.0523		0.281	3.17
CC(C)Cc1ccc(C(C)/C=C2\CCC(CN3CCCC3)C2=O)cc1 (stereo not drawn)		8.71		22.1		> 100		7.74		12.7		27.1		12.3		28		5.18		29.5
O=S(=O)(NCCCNc1cc(-c2cn(-c3ccccc3)nc2-c2cccc(O)c2)ccn1)c1cccc2ccccc12	3.12	> 100	1.69	3.29	2.7	7.2	2.49	7.57	5.62	> 100	3.06	> 100	3.02	40.8	1.57	3.41	1.84	7.33	2.1	9.32
CC(=O)Nc1ccc2oc(=O)c3ccccc3c2c1		> 100		> 100		> 100		> 100		> 100		> 100		> 100		> 100		> 100		> 100
N/C(=N\c1nc2ccccc2s1)NC(=O)Nc1ccccc1Cl	0.11	> 42.8	0.151	2.13	0.082	0.688	0.127	12	0.0857	0.594	2.71	8.53	0.832	> 44.2	0.318	13.5	0.0411	> 32.7	0.197	21.2
O=C1/C(=C/c2ccccc2)CN(CCC(=O)N2C/C(=C\c3ccccc3)C(=O)/C(=C/c3ccccc3)C2)C/C1=C\c1ccccc1	0.687	> 100	12.4	> 67.5	13.7	> 100	0.911	7.48	3.07	19.2	18.8	83.1	12.2	> 100	14.1	47.2	0.295	> 100	7.51	21.7
N=C1C(c2nc3ccccc3s2)=C(O)CN1c1ccc(Cl)cc1Cl	19.2	> 100	36.6	> 100	41.9	> 100	11.7	65.7	18.7	> 100	18.3	70.2	89	> 100	19.2	> 100	1.49	34.6	1.63	3.62
COC1CC2C=CC3C4OC2(/C(C)=C/C(C)C(C(C)O)OC1=O)C3C(O)C(C)C4OC(=O)c1ccc[nH]1 (stereo not drawn)		> 100		> 100		63.3		> 100		> 100		> 100		> 100		> 100		77		> 100
CC(C)c1cccc(C(C)C)c1N=C(N)C#N		> 100		> 59.1		> 65.3		> 100		> 100		> 100		> 100		> 100		> 90		> 100
NC(=O)c1cc(Cl)ccc1NC(=O)c1ccccc1-c1ccccc1	0.499	> 100	0.923	5.52	0.284	20.4	0.872	46.3	0.328	2.59	0.798	> 100	5.38	> 100	0.425	15.9	0.439	63	1.97	> 100
NNC(=O)CCC(=O)Nc1ccc(Cl)cc1Cl		> 100		> 100		> 100		> 100		> 100		> 100		> 100		> 100		> 100		> 100
CN(C)c1ccc2cc(-c3cc4c(oc3=O)-c3ccccc3OC4O)c(=O)oc2c1 (stereo not drawn)	2.54	7.95	3.89	8.19	5.7	> 25	6.05	16.2	5.9	> 25	0.55	> 25	6.26	18.7	0.752	4.67	3.19	9.96	5.09	12.7
CCOC(=O)C#Cc1ccc([N+](=O)[O-])cc1		4.05		3.09		4.1		3.81		3.13		23.3		8.62		9.63		5.27		3.15
Cc1cccc2c1O/C(=C\c1ncc([N+](=O)[O-])n1C)C2=O	0.0701	0.597	0.254	1.42	0.216	1.13	0.262	0.877	0.254	0.864	0.635	6.65	0.215	0.942	0.152	0.367		0.0699	0.19	0.708
COc1cc(C)[nH]c(=O)c1CN1CCc2c(Cl)cc([C@H](OC)C3COC3)c(Cl)c2C1=O	> 100	> 100	> 100	> 100	> 100	> 100	> 100	> 100	> 100	> 100	> 100	> 100	> 100	> 100	> 100	> 100	> 100	> 100	> 100	> 100
COC1OC(CBr)C(OC(c2ccccc2)(c2ccccc2)c2ccccc2)C(OC(c2ccccc2)(c2ccccc2)c2ccccc2)C1OC(c1ccccc1)(c1ccccc1)c1ccccc1 (stereo not drawn)		> 100		> 100		> 100		> 100		28.6		60.8		> 100		> 100		> 100		36.8
O=c1ccccc(-c2ccc(-c3ccco3)cc2)c1O	0.505	> 100	3.1	49.8	0.441	2.69	0.743	17.5	0.415	26.3	0.363	60.2	0.761	> 100	0.935	8.44	0.581	19.8	0.598	8.42
C#Cc1cccc(Nc2ncnc3ccc(-c4cnc(Cl)c(NS(C)(=O)=O)c4)cc23)c1	0.236	28.8	0.648	2.12	0.207	1.27	0.891	2.55	0.197	1.29	0.762	8.33	0.155	1.67	0.243	0.704	0.338	6.35	0.111	1.41
O=C1NC(=O)C(=O)C(c2nc3ccccc3s2)C1=O		> 100		> 100		> 100		> 100		> 100		> 100		> 100		> 100		> 100		> 100
Cc1ccc(NC(=O)CC/C(CC(=O)c2ccc(Cl)cc2)=N\NC(=O)C(=O)NN)cc1C		> 100		> 100		> 100		> 100		> 100		> 100		> 100		> 100		> 100		> 100
Cc1ccc2c(N/N=C\c3ccco3)cc(C)nc2n1	2.23	6.37	1.88	3.75	1.99	4.07	4.98	17.9	2.81	7.49	2.99	9.19	6.15	20.5	10.1	22.3	2.15	6.07	2	5.24
O=C(NC1CCN(Cc2ccccc2)CC1)c1cc(C(=O)NC2CCN(Cc3ccccc3)CC2)cc(C(=O)NC2CCN(Cc3ccccc3)CC2)c1	1.75	5.17	3.62	10.6	15.1	> 50	3.37	12.1	10.7	44.6	2.43	10.2	8.25	18.8	7.9	16.9	8.74	26.2	> 50	> 50
CC1=C2C(=O)C(C)(C)C=C2C(=O)[C@](C)(O)C12CC2		> 1		> 1		0.66		> 1		> 1		> 1		> 1		> 0.612		> 1		> 1
